From patent US20260001889A1, “COMPOSITIONS USEFUL FOR MODULATING SPLICING” (Skyhawk Therapeutics, Inc., priority 2022, published 2026)

The compounds below were run on ATXN3 transcripts containing exon 4 (assay: ATXN3 Quantitative Splicing Assay (qPCR, E4E5 primers/probe)). Conditions: Homo sapiens, SK-N-MC cells, compounds for 24 h.
Type: cell-based
Protocol: Example 34: ATXN3 Quantitative Splicing Assay
Human neuroblastoma SK-N-MC cells were plated in 384-well plates at 20,000 cells/well. Twenty-four hours after plating, cells were treated with compounds for 24 h at appropriate concentrations ranging from 30 μM to 0.6 nM (0.300 DMSO). Treated cells were lysed in 15 μL of lysis buffer, and cDNA was synthesized using the Fast Advanced Cells-to-Ct kit. Two […] of each cDNA was used in qPCR reactions to confirm the exon 4 skipped transcripts of ATXN3. A second set of primers/probe E4E5 was used to detect the transcripts containing exon 4. The third set of primers/probe E8E9 was used to detect total gene level of ATXN3. The qPCR reactions were prepared in 384-well plates in 10 μL volume, using TaqMan™ Fast Advanced Master Mix with primers and probes shown in the table below. Reactions were run in a Quant Studio 6 qPCR instrument with default settings.
The primers and probes are listed below in Table 4.

| Structure (SMILES) | IC50 [nM] |
| --- | --- |
| N[C@H]1CCCC[C@H]1c1cc2nc(Cl)cc(NCc3cccs3)c2o1 (racemic) [Compound 363, rac-2-[(1R,2S)-2-aminocyclohexyl]-5-chloro-N-(thiophen-2-ylmethyl)furo[3,2-b]pyridin-7-amine] | 501 to 5000 |
| N[C@H]1CC[C@@H]1c1oc2c(NCc3cccs3)cc(Cl)nc2c1Br (racemic) [Compound 367, 2-(2-aminocyclobutyl)-3-bromo-5-chloro-N-(thiophen-2-ylmethyl)furo[3,2-b]pyridin-7-amine] | 101 to 500 |
| N[C@@H]1CC[C@H]1c1oc2c(NCc3cccs3)cc(Cl)nc2c1Br (single isomer, unassigned) [Compound 290] | 501 to 5000 |
| N[C@H]1CC[C@@H]1c1oc2c(NCc3cccs3)cc(Cl)nc2c1Br (single isomer, unassigned) [Compound 291] | 101 to 500 |
| N[C@H]1CC(F)(F)C[C@@H]1c1oc2c(NCc3cccs3)cc(Cl)nc2c1Br (single isomer, unassigned) [Compound 369] | 5000 to 10000 |
| N[C@@H]1CC(F)(F)C[C@H]1c1oc2c(NCc3cccs3)cc(Cl)nc2c1Br (single isomer, unassigned) [Compound 388] | 101 to 500 |
| C[C@H](F)[C@H](N)Cc1oc2c(NCc3cccs3)cc(C#N)nc2c1Cl [Compound 104, 2-[(2R,3S)-2-amino-3-fluorobutyl]-3-chloro-7-thenylamino-1-oxa-4-aza-5-indenecarbonitrile] | 101 to 500 |
| N[C@H]1CCC[C@@H]1c1oc2c(NCc3cccs3)cc(Cl)nc2c1Br [Compound 170, 2-[(1S,2S)-2-aminocyclopentyl]-3-bromo-5-chloro-7-thenylamino-1-oxa-4-azaindene] | 0.01 to 100 |
| N[C@@H]1CCC[C@H]1c1oc2c(NCc3cccs3)cc(Cl)nc2c1Br [Compound 172, 2-[(1R,2R)-2-aminocyclopentyl]-3-bromo-5-chloro-7-thenylamino-1-oxa-4-azaindene] | 501 to 5000 |
| N[C@H]1CCCC[C@@H]1c1oc2c(NCc3cccs3)cc(Cl)nc2c1Br [Compound 174, 2-[(1,2S)-2-aminocyclohexyl]-3-bromo-5-chloro-7-thenylamino-1-oxa-4-azaindene] | 0.01 to 100 |
| N[C@@H]1CCCC[C@H]1c1oc2c(NCc3cccs3)cc(Cl)nc2c1Br [Compound 176, 2-[(1R,2R)-2-aminocyclohexyl]-3-bromo-5-chloro-7-thenylamino-1-oxa-4-azaindene] | 501 to 5000 |
| C[C@H](N)C(F)(F)c1oc2c(NCc3cccs3)cc(Cl)nc2c1Br [Compound 187, 2-[(S)-2-amino-1,1-difluoropropyl]-3-bromo-5-chloro-7-thenylamino-1-oxa-4-azaindene] | 0.01 to 100 |
| C#Cc1c(C[C@@H](N)CCOC(F)F)oc2c(NCc3cccs3)cc(Cl)nc12 [Compound 197, 2-[(S)-2-amino-4-difluoromethoxybutyl]-5-chloro-3-ethynyl-7-thenylamino-1-oxa-4-azaindene] | 0.01 to 100 |
| C#Cc1c(C[C@@H](N)[C@H](C)F)oc2c(NCc3cccs3)c(F)c(Cl)nc12 [Compound 278, 2-[(2R,3S)-2-amino-3-fluorobutyl]-5-chloro-3-ethynyl-6-fluoro-7-thenylamino-1-oxa-4-azaindene] | 101 to 500 |
| C[C@H](N)Cc1oc2c(NCc3ccco3)cc(Cl)nc2c1C(=O)N(C)C [Compound 357, 2-[(2S)-2-aminopropyl]-5-chloro-7-[(furan-2-ylmethyl)amino]-N,N-dimethylfuro[3,2-b]pyridine-3-carboxamide] | 10000 to 40000 |
| CNC(=O)c1c(C[C@H](C)N)oc2c(NCc3ccco3)cc(Cl)nc12 [Compound 358, 2-[(2S)-2-aminopropyl]-5-chloro-7-[(furan-2-ylmethyl)amino]-N-methylfuro[3,2-b]pyridine-3-carboxamide] | 10000 to 40000 |
| COc1cccc(CNc2cc(Cl)nc3c(Br)c(C[C@H](C)N)oc23)c1F [Compound 359, 2-[(S)-2-aminopropyl]-3-bromo-5-chloro-7-{[(2-fluoro-3-methoxyphenyl)methyl]amino}-1-oxa-4-azaindene] | 10000 to 40000 |
| COCc1oc2c(NCc3cccs3)cc(Cl)nc2c1Br [Compound 360, 3-bromo-5-chloro-2-(methoxymethyl)-N-(thiophen-2-ylmethyl)furo[3,2-b]pyridin-7-amine] | 5000 to 10000 |
| COc1cc(CNc2cc(Cl)nc3c(Br)c(C[C@H](C)N)oc23)ccn1 [Compound 361, 2-[(S)-2-aminopropyl]-3-bromo-5-chloro-7-{[(2-methoxy-4-pyridyl)methyl]amino}-1-oxa-4-azaindene] | 10000 to 40000 |
| COc1cccc(CNc2cc(Cl)nc3c(Br)c(C[C@H](C)N)oc23)c1 [Compound 362, 2-[(S)-2-aminopropyl]-3-bromo-5-chloro-7-{[(m-methoxyphenyl)methyl]amino}-1-oxa-4-azaindene] | 5000 to 10000 |
| C[C@H](N)Cc1oc2c(NCc3ccco3)cc(Cl)nc2c1-c1nnco1 [Compound 364, 2-[(2S)-2-aminopropyl]-5-chloro-N-(furan-2-ylmethyl)-3-(1,3,4-oxadiazol-2-yl)furo[3,2-b]pyridin-7-amine] | 501 to 5000 |
| C[C@H](N)Cc1oc2c(NCc3ccco3)cc(Cl)nc2c1-c1ncc(C(N)=O)o1 [Compound 365, 2-{2-[(2S)-2-aminopropyl]-5-chloro-7-[(furan-2-ylmethyl)amino]furo[3,2-b]pyridin-3-yl}-1,3-oxazole-5-carboxamide] | 10000 to 40000 |
| C[C@H](N)Cc1oc2c(NCc3ccco3)cc(Cl)nc2c1-c1ncc(C#N)o1 [Compound 366, 2-{2-[(2S)-2-aminopropyl]-5-chloro-7-[(furan-2-ylmethyl)amino]furo[3,2-b]pyridin-3-yl}-1,3-oxazole-5-carbonitrile] | 10000 to 40000 |
| Clc1cc(NCc2cccs2)c2oc(OCC3CCC3)c(Br)c2n1 [Compound 368, 3-bromo-5-chloro-2-(cyclobutylmethoxy)-N-(thiophen-2-ylmethyl)furo[3,2-b]pyridin-7-amine] | 501 to 5000 |
| N[C@H]1COC[C@@H]1c1oc2c(NCc3cccs3)cc(Cl)nc2c1Br [Compound 373, 2-[(3R,4R)-4-aminotetrahydro-3-furyl]-3-bromo-5-chloro-7-thenylamino-1-oxa-4-azaindene] | 101 to 500 |
| N[C@@H]1COC[C@H]1c1oc2c(NCc3cccs3)cc(Cl)nc2c1Br [Compound 374, 2-[(3S,4S)-4-aminotetrahydro-3-furyl]-3-bromo-5-chloro-7-thenylamino-1-oxa-4-azaindene] | 10000 to 40000 |
| N[C@H]1CCC(F)(F)C[C@@H]1c1oc2c(NCc3cccs3)cc(Cl)nc2c1Br [Compound 380, 2-[(1S,2S)-2-amino-5,5-difluorocyclohexyl]-3-bromo-5-chloro-7-thenylamino-1-oxa-4-azaindene] | 101 to 500 |
| C#Cc1c([C@H]2CCCC[C@@H]2N)oc2c(NCc3cccs3)cc(Cl)nc12 [Compound 385, 2-[(1S,2S)-2-aminocyclohexyl]-5-chloro-3-ethynyl-7-thenylamino-1-oxa-4-azaindene] | 0.01 to 100 |
| Cc1c(C[C@H](C)N)oc2c(NCc3cccs3)cc(F)nc12 [Compound 404, 2-[(S)-2-aminopropyl]-5-fluoro-3-methyl-7-thenylamino-1-oxa-4-azaindene] | 101 to 500 |

What follows are compounds tested on ATXN3-HiBiT protein (assay: ATXN3 Total Protein Assay (Kelly-ATXN3-HiBiT luminescence)). Conditions: Kelly-ATXN3-HiBiT cells, 48 h after addition of compound.
Type: cell-based
From the text: Example 36: ATXN3 Total Protein Assay
To monitor ATXN3 protein levels by luminescence, a Kelly-ATXN3-HiBiT cell line with homozygous knock-in of HiBiT at the C-terminus of the endogenous ATXN3 gene was used (knock-in of the HiBiT-tag coding sequence SEQ ID NO. 14: 5′[…]3′ into exon 11 of ATXN3-position 1114 of ATXN3 RefSeq NM_004993.6). Manipulations of the Kelly-ATXN3-HiBiT cell line that result in downregulation of the ATXN3-HiBiT protein (through modulation of ATXN3-HiBiT pre-mRNA splicing) can be followed by monitoring the luminescence signal of the HiBiT tag using the Nano Glo HiBiT Lytic Detection System (Promega, #N3050). Kelly-ATXN3-HiBiT cells were maintained in RPMI 1640 w/Glutamax (Gibco, #61870010), 10% FBS (Sigma Aldrich, #F8687), 1% Penicillin/Streptomycin (Gibco, #15140-122) at 37° C., 5% CO2. To assess HiBiT-luminescence signal upon compound treatment, 2000 Kelly-ATXN3-HiBiT cells were seeded per well in 384 plate format. Compounds were added 24 h after seeding. ATXN3-HiBiT-luminescence signal was read out 48 h after addition of the compound using the Nano Glo HiBiT Lytic Detection System (Promega, #N3050) according to the manufacturer's instructions. To control for cell viability, an identically prepared sister plate was read out with the CellTiter-Glo® 2.0 Assay (Promega, #G9243) according to the manufacturer's instructions. Fold changes of ATXN3-HiBiT-luminescence and of CellTiter-Glo viability signals were calculated relative to a DMSO control condition.

| Structure (SMILES) | EC50 [nM] |
| --- | --- |
| C[C@H](N)C(F)(F)c1oc2c(NCc3cccs3)cc(Cl)nc2c1Br [Compound 187, 2-[(S)-2-amino-1,1-difluoropropyl]-3-bromo-5-chloro-7-thenylamino-1-oxa-4-azaindene] | 0.01 to 100 |
| C#Cc1c(C[C@@H](N)CCOC(F)F)oc2c(NCc3cccs3)cc(Cl)nc12 [Compound 197, 2-[(S)-2-amino-4-difluoromethoxybutyl]-5-chloro-3-ethynyl-7-thenylamino-1-oxa-4-azaindene] | 0.01 to 100 |
| C[C@H](N)Cc1oc2c(NCc3ccccc3OC(F)(F)F)cc(Cl)nc2c1Br [Compound 349, 2-[(S)-2-aminopropyl]-3-bromo-5-chloro-7-{[(o-trifluoromethoxyphenyl)methyl]amino}-1-oxa-4-azaindene] | 10000 to 40000 |
| C[C@H](N)Cc1oc2c(NCc3ccc(F)c(F)c3F)cc(Cl)nc2c1Br [Compound 351, 2-[(S)-2-aminopropyl]-3-bromo-5-chloro-7-{[(2,3,4-trifluorophenyl)methyl]amino}-1-oxa-4-azaindene] | 10000 to 40000 |
| CC(O)c1oc2c(NCc3cccs3)cc(Cl)nc2c1Br (centres unmarked) [Compound 355, 1-(3-bromo-5-chloro-7-((thiophen-2-ylmethyl)amino)furo[3,2-b]pyridin-2-yl)ethan-1-ol] | 5000 to 10000 |
| COC(C)c1oc2c(NCc3cccs3)cc(Cl)nc2c1Br (centres unmarked) [Compound 356, 3-bromo-5-chloro-2-(1-methoxyethyl)-N-(thiophen-2-ylmethyl)furo[3,2-b]pyridin-7-amine] | 10000 to 40000 |
